We go through four compounds from ChEMBL document CHEMBL1201862, “PubChem BioAssay data set” (2004).

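48-hour exposure; five concentrations; linearly interpolated endpoints. Here, GI50 denotes the concentration required for 50% inhibition of growth.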 Activity calls are given as the source filed them. Cut-off read from the data, not from the text of the source: active = GI50 up to about 1.1 µM and inactive = higher.

What all share (assay): NCI anticancer screen, dose series, 48 h
Assay [1] has as its system U-251.
For assay [2], the system named is SNB-75.
The test system of assay [3] is CCRF-CEM.
Assay [4] has as its system SNB-19.
Assay [5] concerns K562.
Assay [6] deals with Hs-578T.
In assay [7] the test system is UO-31.
The subject of assay [8] is TK-10.
In assay [9] the test system is SF-539.
Assay [10] deals with HL-60.
The subject of assay [11] is HCT-116.
Assay [12] concerns ACHN.
Assay [13] relates to MOLT-4.
Assay [14] deals with SK-OV-3.
The test system of assay [15] is RPMI-8226.
The subject of assay [16] is SF-295.
Assay [17] concerns RXF 393.
In assay [18] the test system is 786-0.
Assay [19] concerns HT-29.
Assay [20] deals with CAKI-1.

`COC(=O)C1C(O)C(C)C(O)C(C)(O)C=C(C)C2=C3C(=C(C)C(=O)c4c(O)c(c(C)c(OC(C)=O)c43)NC(=O)C(C)=C/C=C\C(C)(O)C(O)C(C)C1O)OCO2` (stereo not drawn): the GI50 in [1] is > 100 µM (inactive); in assay [2], > 100 µM (inactive); in [3] it was 49.8 µM (inactive); in assay [4], > 100 µM (inactive); in assay [5], 81.1 µM (inactive); in [6], > 100 µM (inactive). Moreover, the GI50 in assay [7] was 91.6 µM (inactive); in assay [8], > 100 µM (inactive); in assay [9] it was > 100 µM (inactive); in [10], 25.2 µM (inactive); in assay [11], 35.5 µM (inactive); in assay [12] it was > 100 µM (inactive). For the same compound, the GI50 in assay [13] was 67.6 µM (inactive); in assay [14], > 100 µM (inactive); in assay [15], 45.4 µM (inactive); in [16] it was > 100 µM (inactive); in assay [17] it was > 100 µM (inactive); in assay [18] it was > 100 µM (inactive). Moreover, in [19], the GI50 was 62.2 µM (inactive).

With `O=C1c2ccccc2-c2nnc3c(c21)-c1ccccc1C3`, the GI50 in assay [1] was 67 µM (inactive); in [2], 76 µM (inactive); in assay [3] it was 89.3 µM (inactive); in assay [4] it was 39 µM (inactive); in [6], > 100 µM (inactive); in [7], 23.2 µM (inactive). Also, the GI50 in [20] is 65.6 µM (inactive); in assay [9], 93.8 µM (inactive); in assay [10] it was 60.5 µM (inactive); in assay [11], 64 µM (inactive); in [12] it was 27.5 µM (inactive); in [13], 24.5 µM (inactive). For the same compound, the GI50 in assay [14] is > 100 µM (inactive); in assay [15], 57.1 µM (inactive); in [16], > 100 µM (inactive); in [17], > 100 µM (inactive); in assay [18], > 100 µM (inactive); in [19], 48 µM (inactive).

As to `N=c1oc2ccccc2cc1C(=O)Nc1cccc2ccccc12`, the GI50 in assay [1] is 82.4 µM (inactive); in [2], > 100 µM (inactive); in [3], > 100 µM (inactive); in assay [4], > 100 µM (inactive); in assay [5], > 100 µM (inactive); in assay [6] it was > 100 µM (inactive). In addition, the GI50 in [20], in assay [9], in [10], in assay [11], in assay [12] and in assay [13] was > 100 µM (inactive) throughout. The GI50 is > 100 µM (inactive) in assay [14]; > 100 µM (inactive) in assay [15]; > 100 µM (inactive) in assay [17]; 80 µM (inactive) in assay [18]; > 100 µM (inactive) in assay [19].

`C1=N\CCN2CCN(CC/N=C\c3ccccc3OCc3cccc(n3)COc3ccccc3/1)CC2`: the GI50 in assay [1] is 2.26 µM (inactive); in assay [2] it was 9.66 µM (inactive); in assay [3], 3.39 µM (inactive); in assay [4], 9.91 µM (inactive); in assay [5] it was 2.48 µM (inactive); in assay [6], 1.38 µM (inactive). Also, the GI50 in assay [7] is 13.8 µM (inactive); in assay [8], 8.3 µM (inactive); in assay [9], 3 µM (inactive); in assay [10] it was 3.16 µM (inactive); in assay [11], 2.61 µM (inactive); in assay [12], 9.71 µM (inactive). Also, the GI50 was 4.6 µM (inactive) in assay [13]; 16.9 µM (inactive) in assay [14]; 2.48 µM (inactive) in assay [15]; 3.62 µM (inactive) in assay [16]; 0.508 µM (active) in assay [17]; 5.13 µM (inactive) in assay [18]. Besides, the GI50 in assay [19] was 8.2 µM (inactive).
